The text below walks through data of article PMC12054364, “Structure of the Fab fragment of a humanized 5E5 antibody to a cancer-specific Tn-MUC1 epitope” (Acta Crystallographica Section D: Structural Biology, 2025).

Ends that are not written are not given here. * marks the point of attachment. αGalNAc = CC(=O)N[C@@H]1[C@@H](O)[C@@H](O)[C@@H](CO)O[C@@H]1*

The target in one experiment is h-5E5 mAb. Put plainly: SPR binding of PAPGS*T*AP to immobilized h-5E5 mAb. Also on record: species or system humanized. The note with it: amine-coupled mAb (∼25 000 RU), same conditions as for the Fab, steady-state. The method, then: (§1) The binding kinetics of the h-5E5 Fab to doubly glycosylated Tn-MUC1 peptides were studied by surface plasmon resonance (SPR) using a Biacore T200 instrument (GE Healthcare). All experiments were performed at 25°C with HBS-EP (10 mM HEPES, 150 mM NaCl, 3 mM EDTA, 0.005% Tween 20 pH 7.4) as the running buffer. The purified h-5E5 Fab and an irrelevant 1104 Fab were immobilized [∼10 000 resonance units (RUs) each] on a Series S Sensor Chip CM7 (Cytiva) using an amine-coupling kit (Cytiva) in 10 mM acetate buffer pH 4.0 (Cytiva). Serial dilutions of doubly glycosylated Tn-MUC1 peptides in HBS-EP buffer were injected at a flow rate of 20 µl min^−1 over flow cells containing immobilized h-5E5 Fab and the 1104 Fab (as a negative control). The reference flow cell was blocked with ethanolamine. The association time was set to 30 s and the dissociation time to 60 s. After each run, the sensor chip was regenerated with HBS-EP buffer. The concentrations of the analytes injected were 6.25, 12.5, 25, 50 and 100 µM. […] Reference flow cell subtracted sensorgrams were analyzed with BIAevaluation Software v.3.2 (Cytiva) and affinities were determined by steady-state analysis from three experimental replicates. PAPGS*T*AP binding to amine-coupled 5E5 mAb (∼25 000 RUs) was determined under the same conditions described for the Fab.
A general note: Surface plasmon resonance follows binding to a sensor surface in real time, without labels.

The subject of another experiment is 1104 Fab. Put plainly: SPR negative control: glycopeptides over immobilized irrelevant 1104 Fab. The note with it: amine-coupled Fab 1104 (∼10 000 RU), peptide 6.25-100 µM, HBS-EP pH 7.4, 25°C. It counts as binding. As for the experimental part: as §1
The target of a further experiment is h-5E5 Fab. Put plainly: SPR binding of doubly glycosylated Tn-MUC1 peptides to immobilized h-5E5 Fab. Set-up: species or system humanized. The method, then:
The binding kinetics of the h-5E5 Fab to doubly glycosylated Tn-MUC1 peptides were studied by surface plasmon resonance (SPR) using a Biacore T200 instrument (GE Healthcare). All experiments were performed at 25°C with HBS-EP (10 mM HEPES, 150 mM NaCl, 3 mM EDTA, 0.005% Tween 20 pH 7.4) as the running buffer. The purified h-5E5 Fab and an irrelevant 1104 Fab were immobilized [∼10 000 resonance units (RUs) each] on a Series S Sensor Chip CM7 (Cytiva) using an amine-coupling kit (Cytiva) in 10 mM acetate buffer pH 4.0 (Cytiva). Serial dilutions of doubly glycosylated Tn-MUC1 peptides in HBS-EP buffer were injected at a flow rate of 20 µl min^−1 over flow cells containing immobilized h-5E5 Fab and the 1104 Fab (as a negative control). The reference flow cell was blocked with ethanolamine. The association time was set to 30 s and the dissociation time to 60 s. After each run, the sensor chip was regenerated with HBS-EP buffer. The concentrations of the analytes injected were 6.25, 12.5, 25, 50 and 100 µM. The analytes were two doubly glycosylated Tn-MUC1 peptides, PAPGS*T*AP and APGS*T*AP, where * represents GalNAc. Reference flow cell subtracted sensorgrams were analyzed with BIAevaluation Software v.3.2 (Cytiva) and affinities were determined by steady-state analysis from three experimental replicates. PAPGS*T*AP binding to amine-coupled 5E5 mAb (∼25 000 RUs) was determined under the same conditions described for the Fab.

The target in experiment [1] is Fab fragment of the humanized 5E5 antibody (h-5E5 Fab) (humanized from mouse | human) (UniProt P01834). Put plainly: SPR; Biacore T200; h-5E5 Fab amine-coupled (~10 000 RU) on a CM7 chip; glycopeptides flowed at 6.25-100 µM, 20 µl/min; 25°C; HBS-EP (10 mM HEPES, 150 mM NaCl, 3 mM EDTA, 0.005% Tween 20 pH 7.4); steady-state analysis, three replicates.
The target in experiment [2] is humanized 5E5 monoclonal antibody (h-5E5 mAb) (humanized from mouse | human) (UniProt P01834). Put plainly: SPR; 5E5 mAb amine-coupled (~25 000 RU); PAPGS*T*AP flowed; same conditions as for the Fab (25°C, HBS-EP); steady-state analysis.
[3] abbreviates: immobilized h-5E5 Fab, HBS-EP pH 7.4, 25°C.

Regarding “PAPGS*T*AP [doubly glycosylated Tn-MUC1 peptide, where * represents GalNAc]”, the Kd was determined as 43.9 µM at h-5E5 mAb and 40.7 ± 0.1 µM at h-5E5 Fab (Biacore T200, 25°C, HBS-EP (10 mM HEPES, 150 mM NaCl, 3 mM EDTA, 0.005% Tween 20 pH 7.4), Fab amine-coupled ∼10 000 RU on CM7 chip, peptide 6.25-100 µM, 20 µl/min, association 30 s, dissociation 60 s, steady-state analysis, three experimental replicates). For the same molecule, the “binding to control surface” value with 1104 Fab is on record as “Neither glycopeptide bound to the control surface”. For the same molecule, in the experiment on h-5E5 Fab (setting [3]), the “observed Rmax” value is listed as 165 RU. The “observed Rmax as % of the theoretical Rmax” value in the experiment with h-5E5 Fab (setting [3]) is given as 70%.

Turning to APGS(αGalNAc)T(αGalNAc)AP [doubly glycosylated Tn-MUC1 peptide APGS*T*AP], in experiment [1], the Kd came to 60.9 µM.

With PAPGS(αGalNAc)T(αGalNAc)AP [doubly glycosylated Tn-MUC1 peptide PAPGS*T*AP], the dissociation constant (Kd) in experiment [1] was 40.7 µM; in experiment [2], 43.9 µM.

The term Kd denotes the concentration at which binding is half-saturated.
